# Results as given in PMC8351955, “Targeting Mycobacterium tuberculosis response to environmental cues for the development of effective antitubercular drugs” (PLoS Biology, 2021).
# “And” between values parts separate entries of the source, which are not always exact repeats. Identical values can stand only once.
# How the values were obtained:
# [1] = test system: CDC1551(rv1405c′::GFP) reporter Mtb strain; assay: microbe, parasite or virus in culture; assay type: cell-based, Mycobacterium tuberculosis; conditions: for NPA - rv1405c'::GFP, average: Fig 1D
# [2] = test system: macrophage phagosomal acidification in BMDMs; assay: Phagosomal maturation assay, carboxyfluorescein beads (pH readout); assay type: cell-based, mouse; conditions: for 490 nm/450 nm, Average: average of 5 replicates
# Experimental: Carboxyfluorescein (pH readout), DQ-BSA/Alexa Fluor 594 (AF594) (proteolysis readout), and BAC/AF594 (Cl^− readout) beads were generated essentially as previously described, except that 10,10′-Bis[3-carboxylpropyl]-9,9′-biacridinium dinitrate di-NHS ester (BAC-SE) was purchased from emp Biotech LLC. BMDMs were isolated from C57BL/6J mice (The Jackson Laboratory) and maintained as described above. A quantity of 2 × 10^5 macrophages/well were seeded into 96-well clear bottom black plates and utilized in assays 1 to 2 days post-seeding. […] Assay buffer consisted of PBS (pH 7.2), supplemented with 5% FBS, 5 mM dextrose, 1 mM CaCl2, 2.7 mM KCl, and 0.5 mM MgCl2 in the case of assays with the carboxyfluorescein or DQ-BSA/AF594 beads. For assays with the BAC/AF594 beads, assay buffer consisted of PBS (pH 7.2), supplemented with 5% FBS, 5 mM dextrose, 1 mM calcium acetate, 1.35 mM K2SO4, and 0.5 mM MgSO4 [9]. Sensor beads at approximately 2 to 5 beads/macrophage in appropriate assay buffer were finally added, with data acquisition on a Biotek Synergy H1 microplate reader with bottom read signal detection started within 2 to 3 minutes of bead addition. Excitation/emission wavelengths were 450 nm/520 nm and 490 nm/520 nm for carboxyfluorescein, 490 nm/520 nm for DQ-BSA, 365 nm/505 nm for BAC, and 590 nm/617 nm for AF594. Each experiment was run with a total of 3 to 5 replicate wells/condition, with temperature maintained at 37°C throughout the assay. Wells were read every 2 minutes for 2 hours for the carboxyfluorescein bead assays, every 2 minoutes for 4 hours for the DQ-BSA/AF594 bead assays, and every 1 minute for 2 hours for the BAC/AF594 bead assays. Analyses of the results were performed as previously described.
# [3] = test system: Mtb; assay: Mouse Mtb infection, C3HeB/FeJ model, oral C6; assay type: in vivo, C3HeB/FeJ mice; conditions: for CFU/ml: individual values
# Experimental: C3HeB/FeJ wild-type mice (The Jackson Laboratory) were infected intranasally with 10^3 CFUs of Mtb (35 μl), under light anesthesia with 2% isoflurane. […] The next day, the suspension was homogenized by bead beating with 5 mm steel beads in a TOMY microtube mixer (2 × 20 seconds) and stored at 4°C until use. […] Administration began at 2 or 6 weeks post-infection as indicated. At time of sacrifice, the left lobe and accessory right lobe of the lung were homogenized in PBS + 0.05% Tween 80 and serial dilutions plated on 7H10 agar plates with 100 μg/ml cycloheximide for bacterial load determination. The remaining 3 right lobes were fixed in 4% PFA in PBS. One lobe was used for histological analysis by standard hematoxylin and eosin (H&E) staining (Tufts Comparative Pathology Services). A Nikon Eclipse E400 with a SPOT insight color digital camera was used to image the histology samples.
smiles,measurement,setting,value
"CCSc1ncc(CN2CCN(c3nc4ccccc4o3)CC2)cn1 [C6, 2-(4-((2-(ethylthio)pyrimidin-5-yl)methyl)piperazin-1-yl)benzo[d]oxazole]","NPA - rv1405c'::GFP, average",[1]; 0.0390625 µM,91.7667%
same,"NPA - rv1405c'::GFP, average",[1]; 0.078125 µM,104.333%
same,"NPA - rv1405c'::GFP, average",[1]; 0.15625 µM,97.8333%
same,"NPA - rv1405c'::GFP, average",[1]; 0.3125 µM,95.1667%
same,"NPA - rv1405c'::GFP, average",[1]; 0.625 µM,93.7333%
same,"NPA - rv1405c'::GFP, average",[1]; 1.25 µM,103.333%
same,"NPA - rv1405c'::GFP, average",[1]; 2.5 µM,124.667%
same,"NPA - rv1405c'::GFP, average",[1]; 5 µM,141%
same,"NPA - rv1405c'::GFP, average",[1]; 10 µM,137.333%
same,"NPA - rv1405c'::GFP, average",[1]; 20 µM,161.5%
same,activity at 10 µM,"[1]; Mycobacterium tuberculosis, read-out: rv1405c'::GFP secondary assay NPA% at 10 µM compound",137 ± 15%
same,activity at 20 µM,"[1]; Mycobacterium tuberculosis, read-out: rv1405c'::GFP secondary assay NPA% at 20 µM compound",162 ± 3.5%
same,Effect on macrophage phagosomal acidification,"[2]; 10 μM, uninfected BMDMs",did not alter
same,"490 nm/450 nm, Average",[2]; time 0 minutes,4.858
same,"490 nm/450 nm, Average",[2]; time 2 minutes,4.93
same,"490 nm/450 nm, Average",[2]; time 4 minutes,4.883
same,"490 nm/450 nm, single replicates (Rep 1-5)",[2]; time 6 minutes,4.9284 and 4.8623 and 4.895 and 4.851 and 4.867
same,"490 nm/450 nm, Average",[2]; time 6 minutes,4.881
same,"490 nm/450 nm, single replicates (Rep 1-5)",[2]; time 8 minutes,4.803 and 4.864 and 4.815 and 4.7957 and 4.8066
same,"490 nm/450 nm, Average",[2]; time 8 minutes,4.817
same,"490 nm/450 nm, single replicates (Rep 1-5)",[2]; time 10 minutes,4.783 and 4.786 and 4.81 and 4.727 and 4.764
same,"490 nm/450 nm, Average",[2]; time 10 minutes,4.774
same,"490 nm/450 nm, single replicates (Rep 1-5)",[2]; time 12 minutes,4.5604 and 4.6849 and 4.647 and 4.525 and 4.478
same,"490 nm/450 nm, Average",[2]; time 12 minutes,4.579
same,"490 nm/450 nm, single replicates (Rep 1-5)",[2]; time 14 minutes,4.45 and 4.492 and 4.497 and 4.303 and 4.234
same,"490 nm/450 nm, Average",[2]; time 14 minutes,4.395
same,"490 nm/450 nm, single replicates (Rep 1-5)",[2]; time 16 minutes,4.182 and 4.214 and 4.296 and 4.029 and 3.894
same,"490 nm/450 nm, Average",[2]; time 16 minutes,4.123
same,"490 nm/450 nm, single replicates (Rep 1-5)",[2]; time 18 minutes,3.914 and 3.991 and 4.055 and 3.796 and 3.692
same,"490 nm/450 nm, Average",[2]; time 18 minutes,3.89
same,"490 nm/450 nm, single replicates (Rep 1-5)",[2]; time 20 minutes,3.661 and 3.707 and 3.803 and 3.557 and 3.477
same,"490 nm/450 nm, Average",[2]; time 20 minutes,3.641
same,"490 nm/450 nm, single replicates (Rep 1-5)",[2]; time 22 minutes,3.443 and 3.455 and 3.57 and 3.319 and 3.292
same,"490 nm/450 nm, Average",[2]; time 22 minutes,3.416
same,"490 nm/450 nm, single replicates (Rep 1-5)",[2]; time 24 minutes,3.1867 and 3.242 and 3.389 and 3.087 and 3.065
same,"490 nm/450 nm, Average",[2]; time 24 minutes,3.194
same,"490 nm/450 nm, single replicates (Rep 1-5)",[2]; time 26 minutes,3.004 and 3.052 and 3.169 and 2.941 and 2.895
same,"490 nm/450 nm, Average",[2]; time 26 minutes,3.012
same,"490 nm/450 nm, single replicates (Rep 1-5)",[2]; time 28 minutes,2.852 and 2.904 and 3.023 and 2.803 and 2.7626
same,"490 nm/450 nm, Average",[2]; time 28 minutes,2.869
same,"490 nm/450 nm, single replicates (Rep 1-5)",[2]; time 30 minutes,2.719 and 2.762 and 2.859 and 2.651 and 2.679
same,"490 nm/450 nm, Average",[2]; time 30 minutes,2.734
same,"490 nm/450 nm, single replicates (Rep 1-5)",[2]; time 32 minutes,2.588 and 2.623 and 2.733 and 2.5744 and 2.581
same,"490 nm/450 nm, Average",[2]; time 32 minutes,2.62
same,"490 nm/450 nm, single replicates (Rep 1-5)",[2]; time 34 minutes,2.506 (2×) and 2.556 and 2.644 and 2.5507
same,"490 nm/450 nm, Average",[2]; time 34 minutes,2.552
same,"490 nm/450 nm, single replicates (Rep 1-5)",[2]; time 36 minutes,2.483 and 2.493 and 2.575 and 2.447 and 2.499
same,"490 nm/450 nm, Average",[2]; time 36 minutes,2.499
same,"490 nm/450 nm, single replicates (Rep 1-5)",[2]; time 38 minutes,2.411 and 2.458 and 2.4978 and 2.4066 and 2.452
same,"490 nm/450 nm, Average",[2]; time 38 minutes,2.445
same,"490 nm/450 nm, single replicates (Rep 1-5)",[2]; time 40 minutes,2.369 and 2.38 and 2.4986 and 2.406 and 2.442
same,"490 nm/450 nm, Average",[2]; time 40 minutes,2.419
same,"490 nm/450 nm, single replicates (Rep 1-5)",[2]; time 42 minutes,2.364 and 2.3783 and 2.434 and 2.346 and 2.427
same,"490 nm/450 nm, Average",[2]; time 42 minutes,2.3898
same,"490 nm/450 nm, single replicates (Rep 1-5)",[2]; time 44 minutes,2.319 and 2.337 and 2.405 and 2.355 and 2.4128
same,"490 nm/450 nm, Average",[2]; time 44 minutes,2.3655
same,"490 nm/450 nm, Average",[2]; time 46 minutes,2.351
same,"490 nm/450 nm, Average",[2]; time 48 minutes,2.35
same,"490 nm/450 nm, Average",[2]; time 50 minutes,2.351
same,"490 nm/450 nm, Average",[2]; time 52 minutes,2.342
same,"490 nm/450 nm, Average",[2]; time 54 minutes,2.342
same,"490 nm/450 nm, Average",[2]; time 56 minutes,2.334
same,"490 nm/450 nm, Average",[2]; time 58 minutes,2.337
same,"490 nm/450 nm, Average",[2]; time 60 minutes,2.3392
same,"490 nm/450 nm, Average",[2]; time 62 minutes,2.354
same,"490 nm/450 nm, Average",[2]; time 64 minutes,2.349
same,"490 nm/450 nm, Average",[2]; time 66 minutes,2.351
same,"490 nm/450 nm, Average",[2]; time 68 minutes,2.358
same,"490 nm/450 nm, Average",[2]; time 70 minutes,2.362
same,"490 nm/450 nm, Average",[2]; time 72 minutes,2.363
same,"490 nm/450 nm, Average",[2]; time 74 minutes,2.3781
same,"490 nm/450 nm, Average",[2]; time 76 minutes,2.3813
same,"490 nm/450 nm, Average",[2]; time 78 minutes,2.38
same,"490 nm/450 nm, Average",[2]; time 80 minutes,2.392
same,"490 nm/450 nm, Average",[2]; time 82 minutes,2.387
same,"490 nm/450 nm, Average",[2]; time 84 minutes,2.389
same,"490 nm/450 nm, Average",[2]; time 86 minutes,2.399
same,"490 nm/450 nm, Average",[2]; time 88 minutes,2.414
same,"490 nm/450 nm, Average",[2]; time 90 minutes,2.411
same,"490 nm/450 nm, Average",[2]; time 92 minutes,2.4274
same,"490 nm/450 nm, Average",[2]; time 94 minutes,2.4259
same,"490 nm/450 nm, Average",[2]; time 96 minutes,2.426
same,"490 nm/450 nm, Average",[2]; time 98 minutes,2.438
same,"490 nm/450 nm, Average",[2]; time 100 minutes,2.447
same,"490 nm/450 nm, Average",[2]; time 102 minutes,2.452
same,"490 nm/450 nm, Average",[2]; time 104 minutes,2.453
same,"490 nm/450 nm, Average",[2]; time 106 minutes,2.461
same,"490 nm/450 nm, Average",[2]; time 108 minutes,2.469
same,"490 nm/450 nm, Average",[2]; time 110 minutes,2.47
same,"490 nm/450 nm, Average",[2]; time 112 minutes,2.479
same,"490 nm/450 nm, Average",[2]; time 114 minutes,2.475
same,"490 nm/450 nm, Average",[2]; time 116 minutes,2.485
same,"490 nm/450 nm, Average",[2]; time 118 minutes,2.494
same,"490 nm/450 nm, Average",[2]; time 120 minutes,2.492
same,"Lung bacterial load, short-term infection model","[3]; 250 mg/kg oral gavage 5 times a week for 2 weeks, started 2 weeks post-infection",significantly inhibited Mtb growth
same,"Lung bacterial load, longer-term infection model","[3]; 250 mg/kg oral gavage for 2 or 4 weeks, started 6 weeks post-infection",significant decrease in bacterial load
same,"Lung histology, short-term infection model","[3]; 250 mg/kg, 2-week treatment from 2 weeks post-infection",less cellular infiltration
same,"Lung histopathology, longer-term infection model","[3]; 250 mg/kg, 2 or 4 weeks treatment from 6 weeks post-infection",improved histopathology
same,CFU/ml,"[3]; Fig. 4A, 4 weeks (pre-treatment 2 weeks)",5260000 CFU/ml and 1940000 CFU/ml and 7340000 CFU/ml and 338000 CFU/ml and 3180000 CFU/ml and 1920000 CFU/ml and 1820000 CFU/ml and 13560000 CFU/ml
same,CFU/ml,"[3]; Fig. 4C, 8 weeks (pre-treatment 6 weeks)",38000 CFU/ml and 860000 CFU/ml and 9200000 CFU/ml and 3340000 CFU/ml and 4100000 CFU/ml and 2340000 CFU/ml and 68000 CFU/ml and 304000 CFU/ml and 270000000 CFU/ml and 3980000 CFU/ml and 234000 CFU/ml and 64000 CFU/ml and 21800 CFU/ml and 62000 CFU/ml
same,CFU/ml,"[3]; Fig. 4C, 10 weeks (pre-treatment 6 weeks)",338000 CFU/ml and 29000 CFU/ml and 2660 CFU/ml and 228000 CFU/ml and 188000 CFU/ml and 43000000 CFU/ml and 112000 CFU/ml and 17800000 CFU/ml and 926000 CFU/ml and 42800000 CFU/ml and 132000 CFU/ml and 118000 CFU/ml and 720000 CFU/ml
